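Assay format: 96-well plates, 48-hour exposure. GI50 is the concentration that inhibits growth by half. TGI is the concentration that stops growth completely.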
How the values were obtained:
Assay in all cases: NCI anticancer screen, dose series, 48 h
786-0 renal = tested on: 786-0 renal
A498 renal = tested on: A498 renal
A549 NSCLC = tested on: A549 NSCLC
ACHN renal = tested on: ACHN renal
BT-549 breast = tested on: BT-549 breast
CAKI-1 renal = tested on: CAKI-1 renal
CCRF-CEM leukemia = tested on: CCRF-CEM leukemia
COLO 205 colon = tested on: COLO 205 colon
DU-145 prostate = tested on: DU-145 prostate
EKVX NSCLC = tested on: EKVX NSCLC
HCC-2998 colon = tested on: HCC-2998 colon
HCT-116 colon = tested on: HCT-116 colon
HCT-15 colon = tested on: HCT-15 colon
HL-60(TB) leukemia = tested on: HL-60(TB) leukemia
HOP-62 NSCLC = tested on: HOP-62 NSCLC
HOP-92 NSCLC = tested on: HOP-92 NSCLC
HS 578T breast = tested on: HS 578T breast
HT29 colon = tested on: HT29 colon
IGROV1 ovarian = tested on: IGROV1 ovarian
K-562 leukemia = tested on: K-562 leukemia
KM12 colon = tested on: KM12 colon
LOX IMVI melanoma = tested on: LOX IMVI melanoma
M14 melanoma = tested on: M14 melanoma
MALME-3M melanoma = tested on: MALME-3M melanoma
MCF7 breast = tested on: MCF7 breast
MDA-MB-231 breast = tested on: MDA-MB-231 breast
MDA-MB-435 = tested on: MDA-MB-435
MOLT-4 leukemia = tested on: MOLT-4 leukemia
NCI-H226 lung = tested on: NCI-H226 lung
NCI-H23 lung = tested on: NCI-H23 lung
NCI-H460 lung = tested on: NCI-H460 lung
NCI-H522 lung = tested on: NCI-H522 lung
NCI/ADR-RES ovarian = tested on: NCI/ADR-RES ovarian
OVCAR-3 ovarian = tested on: OVCAR-3 ovarian
OVCAR-4 ovarian = tested on: OVCAR-4 ovarian
OVCAR-5 ovarian = tested on: OVCAR-5 ovarian
OVCAR-8 ovarian = tested on: OVCAR-8 ovarian
PC-3 prostate = tested on: PC-3 prostate
RPMI-8226 leukemia = tested on: RPMI-8226 leukemia
RXF 393 renal = tested on: RXF 393 renal
SF-268 CNS = tested on: SF-268 CNS
SF-295 CNS = tested on: SF-295 CNS
SF-539 CNS = tested on: SF-539 CNS
SK-MEL-28 melanoma = tested on: SK-MEL-28 melanoma
SK-MEL-5 melanoma = tested on: SK-MEL-5 melanoma
SK-OV-3 ovarian = tested on: SK-OV-3 ovarian
SN12C renal = tested on: SN12C renal
SNB-19 CNS = tested on: SNB-19 CNS
SNB-75 CNS = tested on: SNB-75 CNS
SR leukemia = tested on: SR leukemia
SW-620 colon = tested on: SW-620 colon
T-47D breast = tested on: T-47D breast
TK-10 renal = tested on: TK-10 renal
U251 CNS = tested on: U251 CNS
UACC-257 melanoma = tested on: UACC-257 melanoma
UACC-62 melanoma = tested on: UACC-62 melanoma
UO-31 renal = tested on: UO-31 renal

c1ccc(C2CCCCC2)c(OCCCCCN2CCNCC2)c1
GI50 (786-0 renal): 1.7 µM
TGI (786-0 renal): 4.27 µM
GI50 (A498 renal): 4.54 µM
TGI (A498 renal): 20.7 µM
GI50 (A549 NSCLC): 4.81 µM
TGI (A549 NSCLC): 20.2 µM
GI50 (ACHN renal): 3.45 µM
TGI (ACHN renal): 13.2 µM
GI50 (BT-549 breast): 7.38 µM
TGI (BT-549 breast): 37.9 µM
GI50 (CAKI-1 renal): 2.81 µM
TGI (CAKI-1 renal): 10.9 µM
GI50 (CCRF-CEM leukemia): 2.4 µM
TGI (CCRF-CEM leukemia): 7.9 µM
GI50 (COLO 205 colon): 1.45 µM
TGI (COLO 205 colon): 3.31 µM
GI50 (DU-145 prostate): 4.17 µM
TGI (DU-145 prostate): 16.2 µM
GI50 (EKVX NSCLC): 4.07 µM
TGI (EKVX NSCLC): 19.9 µM
GI50 (HCC-2998 colon): 1.32 µM
TGI (HCC-2998 colon): 2.7 µM
GI50 (HCT-116 colon): 1.65 µM
TGI (HCT-116 colon): 4.19 µM
GI50 (HCT-15 colon): 1.83 µM
TGI (HCT-15 colon): 4.05 µM
GI50 (HL-60(TB) leukemia): 1.72 µM
TGI (HL-60(TB) leukemia): 3.94 µM
GI50 (HOP-62 NSCLC): 10.4 µM
TGI (HOP-62 NSCLC): 28.5 µM
GI50 (HOP-92 NSCLC): 4.44 µM
TGI (HOP-92 NSCLC): 23 µM
GI50 (HS 578T breast): 3.61 µM
TGI (HS 578T breast): 22.1 µM
GI50 (HT29 colon): 1.6 µM
TGI (HT29 colon): 4.9 µM
GI50 (IGROV1 ovarian): 2.77 µM
TGI (IGROV1 ovarian): 12.6 µM
GI50 (K-562 leukemia): 0.313 µM
TGI (K-562 leukemia): 1.7 µM
GI50 (KM12 colon): 1.85 µM
TGI (KM12 colon): 4 µM
GI50 (LOX IMVI melanoma): 1.59 µM
TGI (LOX IMVI melanoma): 3.01 µM
GI50 (M14 melanoma): 1.86 µM
TGI (M14 melanoma): 3.89 µM
GI50 (MALME-3M melanoma): 1.85 µM
TGI (MALME-3M melanoma): 3.57 µM
GI50 (MCF7 breast): 1.89 µM
TGI (MCF7 breast): 4.36 µM
GI50 (MDA-MB-231 breast): 1.62 µM
TGI (MDA-MB-231 breast): 3.75 µM
GI50 (MDA-MB-435): 1.69 µM
TGI (MDA-MB-435): 3.3 µM
GI50 (MOLT-4 leukemia): 1.63 µM
TGI (MOLT-4 leukemia): 5.07 µM
GI50 (NCI-H226 lung): 22.4 µM
TGI (NCI-H226 lung): 48.5 µM
GI50 (NCI-H23 lung): 5.72 µM
TGI (NCI-H23 lung): 22.2 µM
GI50 (NCI-H460 lung): 1.65 µM
TGI (NCI-H460 lung): 3.56 µM
GI50 (NCI-H522 lung): 10.3 µM
TGI (NCI-H522 lung): 28.5 µM
GI50 (NCI/ADR-RES ovarian): 7.07 µM
TGI (NCI/ADR-RES ovarian): 29.2 µM
GI50 (OVCAR-3 ovarian): 2.74 µM
TGI (OVCAR-3 ovarian): 11.1 µM
GI50 (OVCAR-4 ovarian): 4.01 µM
TGI (OVCAR-4 ovarian): 17 µM
GI50 (OVCAR-5 ovarian): 3.46 µM
TGI (OVCAR-5 ovarian): 13 µM
GI50 (OVCAR-8 ovarian): 13.4 µM
TGI (OVCAR-8 ovarian): 43 µM
GI50 (PC-3 prostate): 3.19 µM
TGI (PC-3 prostate): 18.4 µM
GI50 (RPMI-8226 leukemia): 1.69 µM
TGI (RPMI-8226 leukemia): 4.75 µM
GI50 (RXF 393 renal): 1.77 µM
TGI (RXF 393 renal): 4.02 µM
GI50 (SF-268 CNS): 5.14 µM
TGI (SF-268 CNS): 21.4 µM
GI50 (SF-295 CNS): 2.36 µM
TGI (SF-295 CNS): 6.04 µM
GI50 (SF-539 CNS): 3.65 µM
TGI (SF-539 CNS): 18.1 µM
GI50 (SK-MEL-28 melanoma): 1.81 µM
TGI (SK-MEL-28 melanoma): 3.57 µM
GI50 (SK-MEL-5 melanoma): 1.45 µM
TGI (SK-MEL-5 melanoma): 2.81 µM
GI50 (SK-OV-3 ovarian): 6.51 µM
TGI (SK-OV-3 ovarian): 21.8 µM
GI50 (SN12C renal): 2.93 µM
TGI (SN12C renal): 18.1 µM
GI50 (SNB-19 CNS): 3.49 µM
TGI (SNB-19 CNS): 14.4 µM
GI50 (SNB-75 CNS): 1.32 µM
TGI (SNB-75 CNS): 3.54 µM
GI50 (SR leukemia): 0.995 µM
TGI (SR leukemia): 4.56 µM
GI50 (SW-620 colon): 1.82 µM
TGI (SW-620 colon): 3.8 µM
GI50 (T-47D breast): 1.92 µM
TGI (T-47D breast): 5.16 µM
GI50 (TK-10 renal): 5.67 µM
TGI (TK-10 renal): 19.3 µM
GI50 (U251 CNS): 1.82 µM
TGI (U251 CNS): 4.2 µM
GI50 (UACC-257 melanoma): 2.35 µM
TGI (UACC-257 melanoma): 4.92 µM
GI50 (UACC-62 melanoma): 1.87 µM
TGI (UACC-62 melanoma): 3.62 µM
GI50 (UO-31 renal): 5.46 µM
TGI (UO-31 renal): 21.1 µM

— PubChem BioAssay (NCI)
